Assay results published in patent publication US8802103B2, “Compositions and methods for diagnosing and treating cancer” (OncoMed Pharmaceuticals, Inc., priority 2007, dated 2014).

System: UM-C17 colon tumor cells
Experiment: UM-C17 colon tumor xenograft growth
Assay type: in vivo, NOD/SCID mice
Details: 10 mg/kg i.p. two times per week from day 19, tumors approximately 100 mm^3
Procedure: In certain embodiments, anti-Jagged 1 antibodies were analyzed for their ability to reduce the growth of UM-C17 colon tumor cells. Dissociated UM-C17 cells (10,000 per animal) were injected subcutaneously into the right flank region of 6-8 week old NOD/SCID mice. Day 19 after tumor cell injection, when tumors were approximately 100 mm^3, animals were injected intraperitoneal (i.p.) with either 10 mg/kg 64M14 anti-Jagged 1 antibodies, 10 mg/kg 64M14 anti-Jagged 1 antibody and 10 mg/kg Avastin (anti-VEGF), Avastin alone, or control antibody anti-DNP (dinitrophenol or anti-hapten) (n=10 per group) two times per week for the duration of the experiment. Both treatment with 64M14 antibodies and Avastin reduced tumor growth by close to 50% compared to controls (FIG. 4).

Avastin: anti-VEGF antibody
reduction of tumor growth compared to control antibodies: ~50%
